Data: ChEMBL document CHEMBL1147273, “3-Dimethylallylindole: an antibacterial and antifungal metabolite from Monodora tenuifolia” (1986)
Converted amounts (≈) assume the structure as drawn. The source made the active and inactive calls. The calls are words filed in the database; no cut-off is given here.

Experiments:
Staphylococcus aureus = test: Antimicrobial activity against Staphylococcus aureus ATCC 6538 by towfold serial dilution method; assay type: functional
[1] = tested on: Trichophyton mentagrophytes; test: Antimicrobial activity against Trichophyton mentagrophytes ATCC 9172 by towfold serial dilution method; assay type: functional
[2] = tested on: Mycolicibacterium smegmatis; test: Antimicrobial activity against Mycobacterium smegmatis ATCC 607 by towfold serial dilution method; assay type: functional
Bacillus subtilis = test: Antimicrobial activity against Bacillus subtilis ATCC 6633 by towfold serial dilution method; assay type: functional
Escherichia coli = test: Antimicrobial activity against Escherichia coli ATCC 10536 by towfold serial dilution method; assay type: functional, organism-based
Aspergillus niger = test: Antimicrobial activity against Aspergillus niger ATCC 16888 by towfold serial dilution method; assay type: functional, organism-based
Candida albicans [3] = test: Antimicrobial activity against Candida albicans NIH B311 by towfold serial dilution method; assay type: functional
Trametes sanguinea = test: Antimicrobial activity against Pycnoporus sanguineus ATCC 14622 by towfold serial dilution method; assay type: functional
Pseudomonas aeruginosa = test: Antimicrobial activity against Pseudomonas aeruginosa ATCC 15442 by towfold serial dilution method; assay type: functional, organism-based
Candida albicans [4] = test: Antimicrobial activity against Candida albicans ATCC 10231 by towfold serial dilution method; assay type: functional
Saccharomyces cerevisiae = test: Antimicrobial activity against Saccharomyces cerevisiae ATCC 9763 by towfold serial dilution method; assay type: functional
Helminthosporium = test: Antimicrobial activity against Helminthosporium sp. NRRL 4671 by towfold serial dilution method; assay type: functional
Candida albicans [5] = test: Antimicrobial activity against Candida albicans WH by towfold serial dilution method; assay type: functional
Cryptococcus neoformans = test: Antimicrobial activity against Cryptococcus neoformans ATCC 32264 by towfold serial dilution method; assay type: functional

- MIC (Staphylococcus aureus): 12.5 µg/mL (≈ 67.5 µM)
- MIC [1]: 1.56 µg/mL (≈ 8.42 µM)
- MIC [2]: 3.12 µg/mL (≈ 16.8 µM)
- MIC (Bacillus subtilis): 12.5 µg/mL (≈ 67.5 µM)
- MIC (Candida albicans [3]): 25 µg/mL (≈ 135 µM)
- MIC (Trametes sanguinea): 12.5 µg/mL (≈ 67.5 µM)
- MIC (Candida albicans [4]): 25 µg/mL (≈ 135 µM)
- MIC (Saccharomyces cerevisiae): 12.5 µg/mL (≈ 67.5 µM)
- MIC (Helminthosporium): 0.78 µg/mL (≈ 4.21 µM)
- MIC (Candida albicans [5]): 25 µg/mL (≈ 135 µM)
- MIC (Cryptococcus neoformans): 12.5 µg/mL (≈ 67.5 µM)
SMILES: CC(C)=CCc1c[nH]c2ccccc12
- Activity (Escherichia coli): inactive
- Activity (Aspergillus niger): inactive
- Activity (Pseudomonas aeruginosa): inactive
